Tests used:
[1] = tested on: MBP-SUFU-FL, mutation of Asp159; assay: Microscale thermophoresis, MBP-SUFU-FL mutated at Asp159; assay type: binding, human; settings: mutation of Asp159 in MBP-SUFU-FL, data not shown
Procedure: A 5-FAM-labelled peptide (FAM-GLI1p) comprising residues 115–131 of GLI1 (Supplementary Table S1b) was synthesized by Pepceuticals Ltd. A titration series of each recombinant protein was prepared by serial 1:1 dilutions in MST buffer (50 mM Tris–HCl pH 7.6, 150 mM NaCl, 10 mM MgCl2, 0.05% Tween-20) and mixed in a 1:1 ratio with FAM-GLI1p to give final concentrations of 50 nM FAM-GLI1p with MBP-SUFU constructs in the ranges 14.2–29 070 and 54–110 500 nM. Reactions were aspirated into glass capillaries and the thermophoretic movement of FAM-GLI1p was monitored using a Monolith NT.115 instrument (NanoTemper Technologies; Wienken et al., 2010[▶]), with a laser on for 30 s and off for 5 s and a laser power/voltage of 20% for MBP-SUFU-FL and the MBP-SUFU-FL mutants, 40% for MBP-SUFU-Δ and 80% for MBP-SUFU-SH. Fluorescence was measured before laser heating (F Cold) and after 30 s of laser-on time (F Hot). The normalized fluorescence F Hot/F Cold reflects the concentration ratio of labelled molecules. F Hot/F Cold was plotted directly and multiplied by a factor of […], yielding a relative change in fluorescence per thousand. K d was calculated from three independent thermophoresis measurements using NanoTemper software (NanoTemper Technologies). […]

MBP-SUFU-FL = molecular target: T1, MBP-SUFU-FL (Homo sapiens, UniProt Q9UMX1); assay: SYPRO Orange initial fluorescence upon peptide addition, MBP-SUFU-FL; assay type: binding; settings: excitation 470 nm, emission 570 nm, pH 7.0
T1 construct: containing residues 32–483 of human SUFU and a C-terminal hexahistidine tag; hexahistidine tag (C); made in house; host or cells: Escherichia coli JM109 (DE3)
Procedure: (§1) Recombinant MBP-SUFU proteins were diluted to 2.6 µM in 50 mM Na HEPES pH 7.0, 50 mM NaCl, 5 mM β-mercaptoethanol; the peptides GLI1p and GLI1p-SH (Supplementary Table S1b), synthesized by Dr W. Mawby (University of Bristol), were dissolved in the same buffer. Proteins were spun at 14 000g for 20 min at 4°C before adding SYPRO Orange (Molecular Probes) to a final concentration of 6×. Reaction volumes of 25 µl were prepared in 96-well PCR plates with 2.2 µM protein/SYPRO Orange solution and, where applicable, 44 µM peptide. Plates were sealed with optical tape, heated from 20 to 90°C in 12 s 0.2°C steps in an iCycler and fluorescence was detected using an excitation wavelength of 470 nm and an emission wavelength of 570 nm.
Recombinant MBP-SUFU constructs were diluted to 2.5 µM in 50 mM Na HEPES pH 7.0, 50 mM NaCl, 5 mM β-mercaptoethanol and spun at 14 000g for 20 min at 4°C before the addition of SYPRO Orange to a final 5× concentration of dye. The fluorescence of 100 µl samples was measured in black 96-well plates (Nunc) using excitation at λ = 470 nm and emission at λ = 570 nm. GLI1p or GLI1p-SH peptides prepared in the same buffer as above were added in the given ratios and mixed before a second reading was taken. Readings post-peptide addition were divided by the corresponding pre-peptide addition measurements to obtain normalized results. […]

MBP-SUFU-SH = assay: Thermal stability assay with peptide, MBP-SUFU-SH; assay type: binding, human; settings: 44 µM peptide, 2.2 µM protein, SYPRO Orange, pH 7.0; triplicate
Procedure: as §1
Figure 4 The SUFU IDR has distinct structural properties. (a) Thermal stability assays of MBP-SUFU constructs performed in triplicate, either alone (blue) or with GLI1p (red) or GLI1p-SH (green). […] (b) Microscale thermophoresis experiments with FAM-GLI1p and titrated MBP-SUFU constructs, showing an average of three separate experiments. All proteins have similar affinity, but the thermophoretic properties of FAM-GLI1p are modified differently between the MBP-SUFU-FL construct and the MBP-SUFU-Δ and MBP-SUFU-SH constructs, reflecting a difference in shape.

T1 sequence (Q9UMX1 32-483, other chains not shown): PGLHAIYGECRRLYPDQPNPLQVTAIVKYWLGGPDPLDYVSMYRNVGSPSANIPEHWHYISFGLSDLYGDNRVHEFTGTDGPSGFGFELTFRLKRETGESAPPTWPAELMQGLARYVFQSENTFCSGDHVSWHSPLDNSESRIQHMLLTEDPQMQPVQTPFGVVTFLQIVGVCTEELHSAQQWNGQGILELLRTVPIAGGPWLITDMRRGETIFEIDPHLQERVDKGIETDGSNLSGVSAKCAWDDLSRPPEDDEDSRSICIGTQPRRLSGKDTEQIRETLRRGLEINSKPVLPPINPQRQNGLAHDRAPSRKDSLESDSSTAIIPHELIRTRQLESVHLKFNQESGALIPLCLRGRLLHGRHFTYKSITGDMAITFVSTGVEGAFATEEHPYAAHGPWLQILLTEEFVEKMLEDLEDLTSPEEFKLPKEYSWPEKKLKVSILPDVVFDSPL
MBP-SUFU-SH, sequence (Q9UMX1 32-278 limits assumed): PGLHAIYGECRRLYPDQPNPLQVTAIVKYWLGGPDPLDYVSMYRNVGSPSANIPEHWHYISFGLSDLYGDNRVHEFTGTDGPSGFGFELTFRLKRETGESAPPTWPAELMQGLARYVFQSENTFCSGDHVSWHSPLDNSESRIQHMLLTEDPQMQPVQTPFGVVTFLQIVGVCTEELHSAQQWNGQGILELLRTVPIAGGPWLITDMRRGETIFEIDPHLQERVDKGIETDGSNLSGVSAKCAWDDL
MBP-SUFU-SH, sequence (Q9UMX1 361-483 limits assumed): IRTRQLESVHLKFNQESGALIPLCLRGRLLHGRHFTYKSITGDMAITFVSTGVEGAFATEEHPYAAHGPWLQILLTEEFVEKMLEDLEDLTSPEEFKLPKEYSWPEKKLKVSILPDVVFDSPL

With “GLI1p: human GLI1-derived peptide; residues 115–131, containing the highly conserved SYGH motif (TSPGGSYGHLSIGTMSP)” the detectable binding [1] was “abolished detectable binding”, the “initial fluorescence upon addition of GLI1p” value (MBP-SUFU-FL) was “high initial fluorescence values” and the binding (MBP-SUFU-SH) was “All constructs bind to GLI1p”.

Reference: paper PMC3852661, “Structural basis of SUFU–GLI interaction in human Hedgehog signalling regulation” (Acta Crystallographica Section D: Biological Crystallography, 2013)
